Laboratory results: ChEMBL document CHEMBL3734710 (Eur J Med Chem, 2015)

Assays:
in vivo [1] = details: rat, iv
in vivo [2] = details: rat, po, 10 mg/kg
in vivo [3] = details: rat, po, 10 mg/kg; remark: listed apart in the source
in vivo [4] = details: rat, po, 10 mg/kg; remark: listed apart in the source
in vivo [5] = details: rat, iv; remark: listed apart in the source
in vivo [6] = details: rat, iv; remark: listed apart in the source
in vivo [7] = details: rat, po, 10 mg/kg; remark: listed apart in the source
in vivo [8] = details: rat, iv, 5 mg/kg
in vivo [9] = details: rat, iv, 5 mg/kg; remark: listed apart in the source
in vivo [10] = details: rat, iv, 5 mg/kg; remark: listed apart in the source

Row | Vd (in vivo [1]) | Cmax (in vivo [2]) | AUC(0-inf) (in vivo [3]) | Tmax (in vivo [4]) | clearance (in vivo [5]) | half-life (in vivo [6]) | bioavailability (in vivo [7]) | Vd (in vivo [8]) | clearance (in vivo [9]) | half-life (in vivo [10]) | SMILES
1 | 1.17 L/kg | 218 ng/mL | 1350 ng·h/mL | 3.3 h | 10.8 mL/min/kg | 3.77 h | 7.1% |  |  |  | CCc1cc2c(cc1-c1cnn(CC(=O)N(C)C)c1)C(C)(C)c1[nH]c3cc(C#N)ccc3c1C2=O
2 |  | 192 ng/mL | 1940 ng·h/mL | 3.3 h |  |  | 42.4% | 12.9 L/kg | 38 mL/min/kg | 5.41 h | CC1(C)c2cc(C3CCN(CC4(O)CCOCC4)CC3)ccc2C(=O)c2c1[nH]c1cc(C#N)ccc21
3 |  | 351 ng/mL | 7290 ng·h/mL | 4.5 h |  |  | 67.1% | 17.4 L/kg | 14.2 mL/min/kg | 15.8 h | CC1(C)c2cc(C3CCN(CC4CCOCC4)CC3)ccc2C(=O)c2c1[nH]c1cc(C#N)ccc21
